Measurements from ChEMBL document CHEMBL1687752, “Impact of antifungal prophylaxis on colonization and azole susceptibility of Candida species” (2009).
Converted amounts (≈) assume the structure as drawn.

Legend:
Format in all cases: functional
[1] = test system: Nakaseomyces glabratus; assay: Antifungal activity against Candida glabrata isolated from HSCT recipients with acute or chronic GVHD prior to initiation of posaconazole therapy by broth microdilution method
[2] = test system: Pichia kudriavzevii; assay: Antifungal activity against Candida krusei isolated from neutropenic subjects with AML or MDS prior to initiation of posaconazole therapy assessed as maximum MIC by broth microdilution method
[3] = test system: Candida albicans; assay: Antifungal activity against Candida albicans isolated from neutropenic subjects with AML or MDS receiving fluconazole assessed as maximum MIC by broth microdilution method
[4] = test system: Nakaseomyces glabratus; assay: Antifungal activity against 19 days cultured Candida glabrata isolated from HSCT recipient with acute or chronic GVHD mouth after 17 days of prophylaxis by broth microdilution method
[5] = test system: Nakaseomyces glabratus; assay: Antifungal activity against 176 days cultured Candida glabrata isolated from HSCT recipient with acute or chronic GVHD mouth receiving antifungal therapy for 172 days after 114 days of prophylaxis by broth microdilution method
[6] = test system: Nakaseomyces glabratus; assay: Antifungal activity against -2 days cultured Candida glabrata isolated from HSCT recipient with acute or chronic GVHD mouth receiving antifungal therapy for 168 days after 113 days of prophylaxis by broth microdilution method
[7] = test system: Nakaseomyces glabratus; assay: Antifungal activity against Candida glabrata isolated from neutropenic subjects with AML or MDS prior to initiation of fluconazole therapy by broth microdilution method
[8] = test system: Nakaseomyces glabratus; assay: Antifungal activity against 1 day cultured Candida glabrata isolated from HSCT recipient with acute or chronic GVHD mouth after 17 days of prophylaxis by broth microdilution method
[9] = test system: Nakaseomyces glabratus; assay: Antifungal activity against 1 day cultured Candida glabrata isolated from neutropenic subject with AML or MDS stool receiving antifungal therapy for 25 days after 3 days of prophylaxis by broth microdilution method
[10] = test system: Nakaseomyces glabratus; assay: Antifungal activity against -2 days cultured Candida glabrata isolated from HSCT recipient with acute or chronic GVHD mouth receiving antifungal therapy for 172 days after 114 days of prophylaxis by broth microdilution method
[11] = test system: Nakaseomyces glabratus; assay: Antifungal activity against 43 days cultured Candida glabrata isolated from HSCT recipient with acute or chronic GVHD mouth receiving antifungal therapy for 168 days after 113 days of prophylaxis by broth microdilution method
[12] = test system: Nakaseomyces glabratus; assay: Antifungal activity against Candida glabrata isolated from neutropenic subject 1102 with AML or MDS stool after 26 days prophylaxis by broth microdilution method; settings: 624 h
[13] = test system: Pichia kudriavzevii; assay: Antifungal activity against 6 days cultured Candida krusei isolated from neutropenic subject with AML or MDS pharynx receiving antifungal therapy for 19 days after 6 days of prophylaxis by broth microdilution method
[14] = test system: Candida tropicalis; assay: Antifungal activity against -3 days cultured Candida tropicalis isolated from neutropenic subject with AML or MDS pharynx receiving antifungal therapy for 45 days after 24 days of prophylaxis by broth microdilution method
[15] = test system: Nakaseomyces glabratus; assay: Antifungal activity against Candida glabrata isolated from HSCT recipient 474 with acute or chronic GVHD mouth after 124 days prophylaxis by broth microdilution method
[16] = test system: Nakaseomyces glabratus; assay: Antifungal activity against 1 day cultured Candida glabrata isolated from HSCT recipient with acute or chronic GVHD mouth receiving antifungal therapy for 143 days after 116 days of prophylaxis by broth microdilution method
[17] = test system: Nakaseomyces glabratus; assay: Antifungal activity against Candida glabrata isolated from neutropenic subjects with AML or MDS receiving fluconazole by broth microdilution method
[18] = test system: Saccharomyces cerevisiae; assay: Antifungal activity against Saccharomyces cerevisiae isolated from HSCT recipient 513 with acute or chronic GVHD mouth after 112 days prophylaxis by broth microdilution method
[19] = test system: Pichia kudriavzevii; assay: Antifungal activity against Candida krusei isolated from HSCT recipients with acute or chronic GVHD receiving fluconazole assessed as maximum MIC by broth microdilution method
[20] = test system: Candida tropicalis; assay: Antifungal activity against -3 days cultured Candida tropicalis isolated from neutropenic subject with AML or MDS stool receiving antifungal therapy for 45 days after 24 days of prophylaxis by broth microdilution method
[21] = test system: Nakaseomyces glabratus; assay: Antifungal activity against 36 days cultured Candida glabrata isolated from neutropenic subject with AML or MDS pharynx after 48 days of prophylaxis by broth microdilution method
[22] = test system: Candida albicans; assay: Antifungal activity against Candida albicans isolated from HSCT recipients with acute or chronic GVHD prior to initiation of posaconazole therapy by broth microdilution method
[23] = test system: Pichia kudriavzevii; assay: Antifungal activity against Candida krusei isolated from neutropenic subjects with AML or MDS receiving fluconazole assessed as maximum MIC by broth microdilution method
[24] = test system: Candida albicans; assay: Antifungal activity against Candida albicans isolated from HSCT recipients with acute or chronic GVHD prior to initiation of posaconazole therapy assessed as maximum MIC by broth microdilution method
[25] = test system: Pichia kudriavzevii; assay: Antifungal activity against 6 days cultured Candida krusei isolated from neutropenic subject with AML or MDS stool receiving antifungal therapy for 19 days after 6 days of prophylaxis by broth microdilution method
[26] = test system: Nakaseomyces glabratus; assay: Antifungal activity against Candida glabrata isolated from HSCT recipient 186 with acute or chronic GVHD mouth after 112 days prophylaxis by broth microdilution method
[27] = test system: Nakaseomyces glabratus; assay: Antifungal activity against 35 days cultured Candida glabrata isolated from HSCT recipient with acute or chronic GVHD mouth receiving antifungal therapy for 165 days after 138 days of prophylaxis by broth microdilution method
[28] = test system: Candida albicans; assay: Antifungal activity against Candida albicans isolated from neutropenic subjects with AML or MDS receiving fluconazole by broth microdilution method
[29] = test system: Nakaseomyces glabratus; assay: Antifungal activity against Candida glabrata isolated from HSCT recipient 002 with acute or chronic GVHD mouth receiving antifungal drug after 116 days prophylaxis by broth microdilution method
[30] = test system: Pichia kudriavzevii; assay: Antifungal activity against 8 days cultured Candida krusei isolated from neutropenic subject with AML or MDS pharynx after 12 days of prophylaxis by broth microdilution method
[31] = test system: Nakaseomyces glabratus; assay: Antifungal activity against Candida glabrata isolated from HSCT recipients with acute or chronic GVHD prior to initiation of fluconazole therapy by broth microdilution method
[32] = test system: Nakaseomyces glabratus; assay: Antifungal activity against Candida glabrata isolated from neutropenic subject 1187 with AML or MDS stool after 22 days prophylaxis by broth microdilution method; settings: 528 h
[33] = test system: Candida albicans; assay: Antifungal activity against Candida albicans isolated from HSCT recipient 031 with acute or chronic GVHD mouth receiving antifungal drug after 109 days prophylaxis by broth microdilution method
[34] = test system: Nakaseomyces glabratus; assay: Antifungal activity against 62 days cultured Candida glabrata isolated from HSCT recipient with acute or chronic GVHD mouth receiving antifungal therapy for 143 days after 116 days of prophylaxis by broth microdilution method
[35] = test system: Nakaseomyces glabratus; assay: Antifungal activity against Candida glabrata isolated from HSCT recipient 002 with acute or chronic GVHD mouth after 116 days prophylaxis by broth microdilution method
[36] = test system: Pichia kudriavzevii; assay: Antifungal activity against 8 days cultured Candida krusei isolated from neutropenic subject with AML or MDS stool after 12 days of prophylaxis by broth microdilution method
[37] = test system: Candida albicans; assay: Antifungal activity against Candida albicans isolated from HSCT recipient 462 with acute or chronic GVHD mouth after 112 days prophylaxis by broth microdilution method
[38] = test system: Nakaseomyces glabratus; assay: Antifungal activity against Candida glabrata isolated from neutropenic subject 1102 with AML or MDS stool receiving antifungal drug after 26 days prophylaxis by broth microdilution method; settings: 624 h
[39] = test system: Nakaseomyces glabratus; assay: Antifungal activity against 23 days cultured Candida glabrata isolated from neutropenic subject with AML or MDS stool receiving antifungal therapy for 25 days after 3 days of prophylaxis by broth microdilution method

## OC(Cn1cncn1)(Cn1cncn1)c1ccc(F)cc1F [FLUCONAZOLE]
[1]
  MIC50: 16 µg/mL (≈ 52.2 µM)
  MIC90: 64 µg/mL (≈ 209 µM)
[2]
  MIC: 32 µg/mL
[3]
  MIC: 64 µg/mL
[4]
  MIC: > 64 µg/mL
[5]
  MIC: 32 µg/mL (≈ 104 µM)
[6]
  MIC: 64 µg/mL (≈ 209 µM)
[7]
  MIC50: 8 µg/mL (≈ 26.1 µM)
  MIC90: 16 µg/mL (≈ 52.2 µM)
[8]
  MIC: > 64 µg/mL
[9]
  MIC: 16 µg/mL (≈ 52.2 µM)
[10]
  MIC: 16 µg/mL (≈ 52.2 µM)
[11]
  MIC: 64 µg/mL (≈ 209 µM)
[12]
  MIC: 4 µg/mL (≈ 13.1 µM)
[13]
  MIC: 32 µg/mL (≈ 104 µM)
[14]
  MIC: 0.5 µg/mL (≈ 1.63 µM)
[15]
  MIC: 16 µg/mL (≈ 52.2 µM)
[16]
  MIC: 16 µg/mL (≈ 52.2 µM)
[17]
  MIC50: 4 µg/mL (≈ 13.1 µM)
  MIC90: 16 µg/mL (≈ 52.2 µM)
[18]
  MIC: 8 µg/mL (≈ 26.1 µM)
[19]
  MIC: 64 µg/mL
[20]
  MIC: 0.25 µg/mL (≈ 0.816 µM)
[21]
  MIC: 8 µg/mL (≈ 26.1 µM)
[22]
  MIC50: 0.25 µg/mL (≈ 0.816 µM)
  MIC90: 4 µg/mL (≈ 13.1 µM)
[23]
  MIC: 64 µg/mL
[24]
  MIC: 64 µg/mL
[25]
  MIC: 64 µg/mL (≈ 209 µM)
[26]
  MIC: 8 µg/mL (≈ 26.1 µM)
[27]
  MIC: 64 µg/mL (≈ 209 µM)
[28]
  MIC50: 0.25 µg/mL (≈ 0.816 µM)
  MIC90: 0.5 µg/mL (≈ 1.63 µM)
[29]
  MIC: 64 µg/mL (≈ 209 µM)
[30]
  MIC: > 64 µg/mL
[31]
  MIC50: 16 µg/mL (≈ 52.2 µM)
  MIC90: 64 µg/mL (≈ 209 µM)
[32]
  MIC: 16 µg/mL (≈ 52.2 µM)
[33]
  MIC: 128 µg/mL (≈ 418 µM)
[34]
  MIC: 64 µg/mL (≈ 209 µM)
[35]
  MIC: 16 µg/mL (≈ 52.2 µM)
[36]
  MIC: > 64 µg/mL
[37]
  MIC: 8 µg/mL (≈ 26.1 µM)
[38]
  MIC: > 64 µg/mL
[39]
  MIC: 4 µg/mL (≈ 13.1 µM)
